Experimental data: PubChem BioAssay AID1207 (NMMLSC, 2008)
The source made the active and inactive calls.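 Rule for the calls: active = score above 15, the percent gain in GFP-over-time curve area versus untreated cells across six hours; inactive = the rest.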 Peptide text beside a SMILES is read from it. * marks the point of attachment. Cbz = O=C(OCc1ccccc1)*

System: yeast RJD 2456 GFP degradation, flow cytometry
Experiment: PubChem AID 1207
Details: at 150 µM; stronger effect = higher value

`CC(=O)N1C(=O)C(=C2C=C(C)OC(C)=C2)c2ccccc21` was tested, and the GFP remaining was 0.705% (inactive).
With `CC(C)C[C@@H](C=O)NC(=O)[C@H](CC(C)C)NC(=O)[C@H](CC(C)C)NC(=O)OCc1ccccc1` (Cbz-Leu-Leu-Leu-aldehyde) the GFP remaining was 1.91% (inactive).
